Test results published in paper PMC12398856, “A GLP-1 analogue optimized for cAMP-biased signaling improves weight loss in obese mice” (Molecular Metabolism, 2025).

Legend:
GLP-1R [1] = target: T1, GLP-1R (Homo sapiens, UniProt P43220); assay: BRET-based cAMP production assay (CAMYEL sensor) in GLP-1R+ HEK293T cells; format: cell-based; design: host or cells: HEK293T (ATCC), transient transfection with Lipofectamine 2000
Target sequence in this assay (P43220 24-463): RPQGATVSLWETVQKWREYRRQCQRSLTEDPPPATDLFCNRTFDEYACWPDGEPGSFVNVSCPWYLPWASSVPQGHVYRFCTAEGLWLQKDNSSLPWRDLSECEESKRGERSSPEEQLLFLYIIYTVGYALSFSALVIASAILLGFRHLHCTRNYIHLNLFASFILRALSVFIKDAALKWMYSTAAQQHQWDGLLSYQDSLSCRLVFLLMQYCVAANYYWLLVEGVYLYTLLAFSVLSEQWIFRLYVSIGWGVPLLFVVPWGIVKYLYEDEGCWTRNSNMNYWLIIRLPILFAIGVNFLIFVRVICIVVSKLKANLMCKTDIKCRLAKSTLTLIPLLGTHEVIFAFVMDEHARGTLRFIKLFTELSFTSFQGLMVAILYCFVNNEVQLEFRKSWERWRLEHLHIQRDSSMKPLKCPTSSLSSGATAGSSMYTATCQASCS

in vivo = details: mouse, sc, t1/2
GLP-1R [2] = target: T1, GLP-1R; assay: CRE-Luciferase reporter assay (cAMP production) in BHK cells expressing GLP-1R; format: cell-based; details: read-out: Log(data) cAMP EC50 (converted)
Target sequence in this assay (P43220 24-463, species assumed): as the sequence (P43220 24-463) above

GLP-1R [3] = target: T1, GLP-1R; assay: β-arrestin recruitment (Barr) at GLP-1R, Supplemental Table 1; format: cell-based; details: negative log10 of EC50; read-out: Log(data) Barr EC50 (converted)
Target sequence in this assay (P43220 24-463, species assumed): as the sequence (P43220 24-463) above

- EC50 (GLP-1R [1]): 73.9 nM
- half-life (in vivo): 21.7 h
- EC50 (GLP-1R [2]): 0.0192 nM
- EC50 (GLP-1R [3]): 20.1 nM
SMILES: CC[C@H](C)[C@H](NC(=O)[C@H](Cc1ccccc1)NC(=O)[C@H](CCC(=O)O)NC(=O)[C@H](CCCNC(=N)N)NC(=O)[C@H](C)NC(=O)[C@H](C)NC(=O)[C@H](CCC(N)=O)NC(=O)[C@H](CCC(=O)O)NC(=O)[C@H](CCC(=O)O)NC(=O)[C@H](CC(C)C)NC(=O)[C@H](Cc1ccc(O)cc1)NC(=O)[C@H](CO)NC(=O)[C@H](CO)NC(=O)[C@@H](NC(=O)[C@H](CC(=O)O)NC(=O)[C@H](CO)NC(=O)[C@@H](NC(=O)[C@H](Cc1ccccc1)NC(=O)[C@@H](NC(=O)CNC(=O)[C@H](CCC(=O)O)NC(=O)[C@H](Cc1c[nH]c2ccccc12)NC(=O)CCc1c[nH]cn1)[C@@H](C)O)[C@@H](C)O)C(C)C)C(=O)N[C@@H](C)C(=O)N[C@@H](Cc1c[nH]c2ccccc12)C(=O)N[C@@H](CC(C)C)C(=O)N[C@H](C(=O)N[C@@H](CCCNC(=N)N)C(=O)NCC(=O)N[C@@H](CCCNC(=N)N)C(=O)N[C@@H](CCCCNC(=O)COCCOCCNC(=O)COCCOCCNC(=O)CC[C@H](NC(=O)CCCCCCCCCCCCCCCCC(=O)O)C(=O)O)C(=O)O)C(C)C [NNC5840]
